A word on the IC50: it is the concentration that inhibits the measured activity by half. Low values mean higher potency, high ones lower potency.

The source of these data is publication PMC4199632, “Exploring the Anti-Cancer Activity of Novel Thiosemicarbazones Generated through the Combination of Retro-Fragments: Dissection of Critical Structure-Activity Relationships” (PLoS ONE, 2014).

The test system of the first test is HeLa cervical carcinoma cells. Put plainly: Proliferation assay (crystal violet, 72 h). It is filed as cell-based. The note with it: Homo sapiens, 72 h incubation, mean ±SD (3 experiments). In short, it runs like this:
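Cells seeded 24 h before treatment, then exposed at 37 °C for 72 h (SK-N-MC, Raji, HeLa) or 96 h (HCT116, NHDF); final DMSO <0.05%. Read-outs: MTT at 570 nm (SK-N-MC, Raji), crystal violet at 595 nm (HeLa), MTS at 490 nm (HCT116, NHDF); IC50 is 50% absorbance versus untreated control, triplicates repeated three times.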
For `CN(C(=S)N/N=C/c1ccc2ccccc2n1)C1CCCCC1` [2f], the IC50 stood at 940 ± 450 nM. Still for that read-out and setting: as for `S=C(NN=C(c1ccccn1)c1ccccn1)N1CCN(c2cnccn2)CC1` [1e], the figure is 720 ± 70 nM; as for `CN(C)C(=S)NN=C(c1ccccn1)c1ccccn1` [Dp44mT, di-2-pyridylketone 4,4-dimethyl-3-thiosemicarbazone, reference compound], 40 ± 10 nM; as for `S=C(N/N=C/c1ccc2ccccc2n1)N1CCN(c2ccccc2)CC1` [2b], 200 ± 70 nM. Compound `CC(=O)N(O)CCCCCNC(=O)CCC(=O)N(O)CCCCCNC(=O)CCC(=O)N(O)CCCCCN` [DFO, desferrioxamine, reference compound] returned an IC50 of 14300 ± 960 nM. `CN(C(=S)N/N=C/c1cnc2ccccc2n1)C1CCCCC1` [5f] had an IC50 of 4090 ± 2070 nM. As for `CCN1CCN(C(=S)N/N=C/c2ccc3ccccc3n2)CC1` [2a], the IC50 was 430 ± 160 nM. As for `CN(C(=S)N/N=C/c1ccccc1O)C1CCCCC1` [6f], the midpoint of inhibition, the IC50, lay at 10100 ± 3600 nM.

Another test relates to SK-N-MC cells. As to the kind of experiment: Mobilization of cellular 59Fe (59Fe efflux). It is filed as cell-based, human. Particulars: chelator 25 µM, 3 h/37°C, prelabeled SK-N-MC cells; control medium 4±1%. How it is done:
The iron transport protein, Tf (Sigma-Aldrich), was labeled with ^59Fe (PerkinElmer Life and Analytical Sciences, Boston, MA) to form ^59Fe2-Tf using standard methods, [7]. Unbound ^59Fe was removed by passage through a Sephadex G25 column and was followed by exhaustive dialysis, [7].
To examine the ability of the novel chelators to mobilize ^59Fe from SK-N-MC cells, ^59Fe efflux experiments were performed using established techniques, [51]. The monolayer of SK-N-MC cells was prelabeled for 3 h at 37°C in MEM containing ^59Fe2-Tf (0.75 µM). Cells were then washed four times with ice-cold PBS and incubated for a further 3 h at 37°C with medium alone (the control) or medium containing the chelator (25 µM). After this incubation, the overlying medium that contained the released ^59Fe was separated from the cells using a Pasteur pipette. Radioactivity was measured in both the cells and supernatant using a γ-scintillation counter (Wallac Wizard 3, Turku, Finland). In these studies, the novel ligands were compared to the previously characterized chelators, DFO and Dp44mT, as their ability to mobilize cellular ^59Fe has been extensively examined in these cells, [12], [17], [18], [50].
Figure 6 Effect of (A) series 1, (B) series 2, (C) series 3, (D) series 4, (E) series 5 and (F) series 6 chelators, relative to the controls DFO and Dp44mT, on ^59Fe mobilization from prelabeled SK-N-MC cells. Cells were incubated for 3 h/37°C with ^59Fe-transferrin (0.75 µM), washed 4 times with ice-cold PBS and then reincubated for 3 h/37°C in the presence or absence of the chelators (25 µM). Release of ^59Fe was then assessed using a γ-scintillation counter. Results are mean ±SD (3 experiments).
For `S=C(NN=C(c1ccccn1)c1ccccn1)N1CCN(c2cnccn2)CC1` [1e], the “59Fe mobilization (% of cellular 59Fe released)” value is reported as 31–39%.

In the case of `CN(C)C(=S)NN=C(c1ccccn1)c1ccccn1` [Dp44mT, di-2-pyridylketone 4,4-dimethyl-3-thiosemicarbazone, reference compound], the “59Fe mobilization (% of cellular 59Fe released)” value stood at 35±2%. Turning to `CC(=O)N(O)CCCCCNC(=O)CCC(=O)N(O)CCCCCNC(=O)CCC(=O)N(O)CCCCCN` [DFO, desferrioxamine, reference compound], the “59Fe mobilization (% of cellular 59Fe released)” value was determined as 11±2%.

Staying with this test, now noted: chelator 25 µM, SK-N-MC cells.
Regarding `CN(C(=S)N/N=C/c1ccc2ccccc2n1)C1CCCCC1` [2f], the “59Fe mobilization efficacy compared with controls” value was “comparable release of ^59Fe relative to DFO”.

`S=C(N/N=C/c1ccc2ccccc2n1)N1CCN(c2ccccc2)CC1` [2b]: the “59Fe mobilization efficacy compared with controls” value is recorded as “comparable release of ^59Fe relative to DFO”.

Turning to `CN(C(=S)N/N=C/c1cnc2ccccc2n1)C1CCCCC1` [5f], the “59Fe mobilization efficacy compared with controls” value is listed as “comparable release of ^59Fe relative to DFO”. As to `CCN1CCN(C(=S)N/N=C/c2ccc3ccccc3n2)CC1` [2a], the “59Fe mobilization efficacy compared with controls” value is recorded as “comparable ^59Fe mobilization efficacy to that of the control medium”.
